Laboratory results taken from US12296018B2, “Albumin binding peptide-drug (AlBiPeD) conjugates and methods of making and using same” (priority 2018, dated 2025).
“And” between values parts separate entries of the source, which are not always exact repeats. Equal entries are not always repeated.

Key:
[1] = system: C26 murine colon carcinoma cells; experiment: In vitro cytotoxicity (MTS, 72 h) C26; format: cell-based
Experimental: (§1) In vitro cytotoxicity C26 murine colon carcinoma cells and three different pancreatic cancer cell lines, BxPC-3, AsPC-1, and MIA PaCa-2, were used to study the in vitro cytotoxicity of ABD-DOX and Dox. Cells were cultured and grown as monolayers at 37° C. with C02 in a humidified incubator and were passaged at ˜80% confluency using 0.05% trypsin-EDTA (Invitrogen, Carlsbad, CA). C26, BxPC-3, AsPC-1, and MIA PaCa-2 cells were seeded in 96-well plates (5,000 cells/well) and incubated overnight. Three-fold serial dilutions of drug were then added to the wells in triplicate and also to control wells (media with no cells) to correct for the background Dox absorbance. After 72 h treatment, 20 μL MTS reagent was added to each well and was incubated for 3 h at 37° C., and the absorbance at 490 nm was measured using a Victor3 plate reader (Perkin Elmer, Boston, MA). Cell viability (%) was defined as the percentage of the absorbance of the drug-treated cells relative to buffer-treated cells and IC50 values were determined using logistic non-linear regression analysis with GraphPad Prism software. The IC50 was defined as the Dox Equiv. concentration of formulations resulting in 50% growth inhibition compared with a negative control, buffer-treated cells.

[2] = system: AsPC-1 pancreatic cancer cells; experiment: In vitro cytotoxicity (MTS, 72 h) AsPC-1; format: cell-based, human; conditions: 72 h incubation, Dox Equiv. concentration
Experimental: as §1

[3] = system: BxPC-3 pancreatic cancer cells; experiment: In vitro cytotoxicity (MTS, 72 h) BxPC-3; format: cell-based, human; conditions: 72 h incubation, Dox Equiv. concentration
Experimental: as §1

[4] = system: MIA PaCa-2 pancreatic tumor xenografts; experiment: In vivo tumor regression, MIA PaCa-2 xenograft model; parameters: species or system nude BALB/c mice
Experimental: In vivo tumor regression For in vivo tumor implantation, C26 cells at 5×10^5 cells in 30 μL Minimum Essential Medium (MEM) (Invitrogen, Carlsbad, CA) and MIA PaCa-2 cells at 2×10^6 cells in 50 μL 10:90 v/v MEM: Matrigel matrix (Corning Inc, Corning, New York) were inoculated in the right flank of normal and athymic nude BALB/c mice, respectively. Tumor cells were allowed to grow until the tumor volume, calculated as π/6×length×width^2, reached 75-100 mm^3 for C26 tumors and 100-125 mm^3 for MIA PaCa-2 tumors. Tumor bearing mice were then treated with ABD-Dox at 10 and 20 mg Dox Equiv.kg^−1 BW, AlDox at 20 mg Dox Equiv.kg^−1 BW, and free Dox at 10 mgkg^−1 BW. Tumor volumes and body weights were monitored for 100 days after treatment and mice displaying excessive tumor volume (>[…]), body weight loss (>15%), or ill health were euthanized. Tumor growth and survival data were analyzed by GraphPad Prism software. Survival curves were generated with the Kaplan-Meier method and compared with the log-rank (Mantel-Cox) test. Tumor growth data were compared with a paired one-way ANOVA followed by Tukey-Kramer (Tukey's) post-hoc test. P<0.05 was considered as statistically significant.
For in vivo tumor regression studies, a single dose of ABD-Dox was injected via tail vein at 10 mg Dox Equiv.kg^−1 BW (MTD of free Dox) and 20 mg Dox Equiv.kg^−1 BW (MTD of ABD-Dox) in separate cohorts of BALB/c mice with s.c. C26 tumors or nude mice with s.c. MIA Paca-2 tumors. Free Dox was injected at its MTD of 10 mgkg-1 BW, and AlDox was injected at 20 mg Dox Equiv.kg^−1 BW, a dose that was reported to be safe in previous studies. All animals were injected when the tumors were 75-100 mm; in size for C26 tumors and 100-125 mm^3 for MIA PaCa-2 tumors.

Aqueous solubility = format: physicochemical; conditions: pH 7.4 PBS
Experimental: To remove the ELP160 tag, the KEKE-ELP160-srt-ABD-Dox conjugate was buffer exchanged into sortase reaction buffer, and was reacted with (His)6-sortase A-ELP40 in the presence of a 50 fold molar excess of triglycine (FIG. 2A). The efficiency of the sortase reaction, defined as the percent conversion of ELP-ABD-Dox substrate to ABD-Dox, was determined by size exclusion HPLC and was calculated to be ≥85% (FIG. 3A). The ABD-Dox product was then separated from (His)6-sortase A-ELP40, the cleaved KEKE-ELP160 tag, and unreacted KEKE-ELP160-srt-ABD-Dox in the sortase reaction solution by preparative size exclusion chromatography (SEC). The number of Dox molecules conjugated per ABD (Dox/ABD molar ratio) was measured before the sortase reaction by dissolving the lyophilized KEKE-ELP160-srt-ABD-Dox conjugate in PBS and calculating the moles of KEKE-ELP160-srt-ABD-Dox and Dox gravimetrically and spectrophotometrically at 488 nm, respectively. 3-4 Dox molecules were attached to each KEKE-ELP160-srt-ABD-(CGG)8. However, following removing the ELP160 tag, the resulting ABD-Dox conjugate was too hydrophobic and insoluble in pH 7.4 PBS because of the high number of conjugated Dox molecules. […] Formulation of AlDox in acidic pH, however, is undesirable as it can trigger the premature, in vitro degradation of the hydrazone bond between Dox and EMCH, converting AlDox back to free Dox.

ABD-Dox (GLAEAKVLANRELDKYGVSDYYKNLINNAKTVEGVKALIDEILAALPCGGCGGCGGCGG)
IC50 ([1]; 72 h incubation, Dox Equiv. concentration): 6.4 µM and 6.43 µM
in vitro cytotoxicity, fold lower than free Dox ([1]; C26 and MIA PaCa-2 cells): 10-30 fold
IC50 [2]: 15.2 µM
IC50 [3]: 8.9 µM
survival compared with free Dox ([4]; 10 mg Dox Equiv.kg^−1 BW): No significant difference
survival compared with AlDox ([4]; 20 mg Dox Equiv.kg^−1 BW): No significant difference
survival compared with free Dox ([4]; 20 mg Dox Equiv.kg^−1 BW): significantly longer survival
tumor regression compared with AlDox ([4]; 20 mg Dox Equiv.kg^−1 BW): superior tumor regression efficacy
tumor-free period compared with AlDox ([4]; 20 mg Dox Equiv.kg^−1 BW, 100-day span): longer tumor-free period
mice showing tumor disappearance ([4]; by day 15 after treatment, 20 mg Dox Equiv.kg^−1 BW): all
tumor recurrence in tumor-eradicated mice ([4]; throughout the 100 day course of study, 20 mg Dox Equiv.kg^−1 BW): 25%
aqueous solubility (Aqueous solubility): up to 4 mg Dox Equiv.mL^−1
